Laboratory results: article PMC7872314, “Modeling Bioavailable Concentrations in Zebrafish Cell Lines and Embryos Increases the Correlation of Toxicity Potencies across Test Systems” (Environmental Science & Technology, 2020)

System: zebrafish embryos
Experiment: not given
Design: method as in earlier work
Conditions: 144 hpf, nominal, converted; cited from earlier work

Row | SMILES | EC50
1 | COCC(=O)Nc1cc(Sc2ccccc2)ccc1N/C(=N\C(=O)OC)NC(=O)OC [Febantel, febantel] | 761 nM

Same assay, conditions: nominal, log10; cited from earlier work

Row | SMILES | logEC50 144 hpf
2 | COCC(=O)Nc1cc(Sc2ccccc2)ccc1N/C(=N\C(=O)OC)NC(=O)OC [Febantel, febantel] | -6.118 M

System: not given
Experiment: not given
Conditions: ref Comptox, PubChem or DrugBank; cited from earlier work

Row | SMILES | logKow | pKa (Strongest Basic) | Water Solubility | pKa (Strongest Acidic)
3 | CCNc1nc(Cl)nc(NC(C)C)n1 [Atrazine] | 2.61 | 1.6 |  | 
4 | CCOP(=S)(OCC)Oc1nc(Cl)c(Cl)cc1Cl [Chlorpyrifos] | 4.96 | -4.2 | 1.4 µg/mL | 
5 | CCOP(=S)(OCC)Oc1cc(C)nc(C(C)C)n1 [Diazinon] | 3.81 | 4.2 |  | 
6 | COP(=O)(OC)OC=C(Cl)Cl [Dichlorvos] | 1.43 |  |  | 
7 | COP(=S)(OC)Oc1ccc([N+](=O)[O-])c(C)c1 [Fenitrothion] | 3.3 |  |  | 
8 | Cl[C@H]1[C@H](Cl)[C@@H](Cl)[C@@H](Cl)[C@H](Cl)[C@H]1Cl [Lindane] | 3.72 |  | 7.3 µg/mL | 
9 | CC1(C)C(C=C(Cl)Cl)C1C(=O)OCc1cccc(Oc2ccccc2)c1 (centres unmarked) [Permethrin] | 6.5 | -3.7 |  | 
10 | CNC(=O)Oc1ccccc1OC(C)C [Propoxur] | 1.52 | -4.9 |  | 14.8
11 | CCNc1nc(Cl)nc(NC(C)(C)C)n1 [Terbuthylazine] | 3.21 | 2 |  | 
12 | c1ccc2[nH]c(-c3cscn3)nc2c1 [Thiabendazole] | 2.47 | 4.6 |  | 

System: rat cardiomyoblast cells vs fish / zebrafish embryos
Experiment: Potency ratios of the Rodrigues et al. data
Conditions: bioavailable concentrations; embryo data chronic exposure 35 dpf

Row | SMILES | potency ratio (Rodrigues et al. data)
13 | Cl[C@H]1[C@H](Cl)[C@@H](Cl)[C@@H](Cl)[C@H](Cl)[C@H]1Cl [Lindane] | 13.6
